From patent US20250340590A1, “PEPTIDE HAVING ANTI-INFLAMMATORY ACTIVITY AND USE THEREOF” (CAREGEN CO., LTD., priority 2021, published 2025)

Test system: IL-1β
Assay: IL-1β secretion by ELISA in TNFα-induced mouse splenocytes
Format: cell-based
Details: TNFα 20 nM, 24 hours
Protocol: Inflammation was induced by treating mouse splenocytes with the inflammatory cytokine TNFα, and the secretion amounts of the inflammatory cytokines IL-17, IL-1B, and IFNγ were confirmed. IL-17 corresponds to a pro-inflammatory cytokine, and the descriptions of IL-1β and IFNγ are the same as above.
Mouse splenocytes were dispensed into a 24-well plate at a concentration of 1×10^7 cells/well and cultured until the next day. The medium was replaced with serum-free medium, and after 4 hours, the cells were treated with TNFα and the peptide of the present invention and then cultured again for another 24 hours. In order to induce inflammation, the cells were treated with TNFα at 20 nM, and the peptide at 5 μM and 50 μM, respectively. The mouse splenocytes in the group in which inflammation was not induced due to untreatment with TNFα (NON); the negative control group in which the cells were treated with TNFα but not treated with the peptide (NC); and the group in which the cells were treated with TNFα along with the peptide of the present invention at the same concentration as above, respectively, were reacted as described above and the cell cultures were recovered. […]

## TWNS [peptide of the present invention]
Peptide at 5 μM
  secretion amount of IL-1β: decreased
Peptide at 50 μM
  secretion amount of IL-1β: decreased
